Experiments:
male CD-1 mice = assay: Wire hang test, SG-fed mice; type: in vivo, mouse
Text: Five-month old male CD-1 mice (30.1-35.7 g, 7.5 cm-8.8 cm) were purchased from Charles River (Wilmington, Mass.). Adult mice were chosen to mimic the mean age of onset of ALS-PDC (Kurland, L. T. (1988a) Trends Neurosci. 11, 51-4; Kurland, L. T., et al. (1994) Amyotrophic lateral sclerosis-parkinsonism-dementia complex on Guam: epidemiologic and etiological perspectives. 109-131). Thirty mice for the SG study were randomly divided into 2 groups (14 control and 16 experimental animals). All animals were housed singly in a virus-free barrier facility in a room maintained at 22° C. under a 12 hour light/dark cycle. The mice were provided ad libitum access to food and water.
The synthetic SG was mixed with finely ground Purina Chow mouse pellets (Mouse Diet™, Purina) to create the experimental pellets with a SG content of 1000 μg per pellet. Dry materials were blended with a sterile silicon spatula. For every 5 g of standard feed, 2.5 mL of doubly-distilled water (dd)H2O was added and the dough was kneaded and round up into pellets. A single sterol glucoside containing pellet was placed in the feeding tray each morning before the addition of regular mouse chow (ad libitum). All experimental pellets were entirely consumed by the mice each day. Control mice were fed standard mouse chow pellets of identical weight with no additives. SG feeding was conducted daily for 15 weeks and mice were behaviorally monitored until sacrifice at 35 weeks (time point 1) or 52 weeks (time point 2).
Wire hang: Neuromuscular strength was tested by the wire hang (or hanging wire) test (Wilson, J., et al. (2003d) Neuromolecular Med. 3, 105-18; Wilson, J. M., et al. (2004c) Neuroimage. 23, 336-43; Wilson, J. M., et al. (2005) Soc Neurosci. Abstr. online; Tabata, R. C., et al. (2008) Neuromolecular Med. 10, 24-39). Both balance and grip strength are required for a mouse to keep its body suspended (Crawley, 2000). […] The latency to fall off the wire (maximum 60 seconds) (Sango et al., 1996) was measured from the moment the wire apparatus was inverted (180°). […]

[1] = system: lumbar spinal cord α- and γ-motor neurons; assay: Motor neuron counts (cresyl violet, Nissl), lumbar spinal cord; type: in vivo, mouse
Procedure: Mice were sacrificed for histological analysis at 35 weeks (35.9-48.6 g) and 52 weeks (41.2-51.4 g) of age. Age-matched control mice from each time point were included for comparison. The mice were deeply anaesthetized in a chamber with 4% isoflurane and perfused intracardially with filtered PBS (pH 7.4) until the effluent was cleared of blood (2 minutes), followed by perfusion with cold (4° C.) 4% paraformaldehyde (PFA) in 0.1 M phosphate buffer (pH 7.4) for 5 minutes (30 mL). The PBS and the PFA were delivered through separate sterile platinum-cured silicon tubing (Cole-Parmer Canada Inc., Montreal, Canada) and peristaltic pumps (MasterFlex peristaltic pump, Cole-Parmer Canada Inc., Montreal, Canada). The brains and spinal cords were dissected out and fixed overnight at 4° C. and equilibrated in increasing concentrations of sucrose in phosphate-buffered saline, pH 7.4 (10, 20, and 25%) over a 3-day period. Complete equilibration of the tissues was taken as the moment the tissues sank to the bottom of the scintillation tubes filled with 25% sucrose. After equilibration, the spinal cord and brain specimens were set in molds (Tissue-tek Cryomold, Sakura Finetek, USA, Torrance, Calif.) with an optimum cutting temperature (OCT) gel-sucrose mixture frozen by immersion in an isopentane (BDH Laboratory Supplies, UK) bath on dry ice and stored at −80° C. until processing.
Cryosectioning of tissue: Frozen, coronal sections (spinal cord: 20 μm, brain: 30 μm) were cut with a Hacker-Bright cryostat (Hacker Instruments and Industries Inc., Winnsboro, S.C.) and mounted on charged glass slides (Superfrost Plus; Fisher Scientific, Pittsburgh, Pa.) so that adjacent CNS sections on each slide represented regions 100 μm and 150 μm apart for spinal cord and brain, respectively (Tabata et al., 2008). The slides were stored at −80° C. until histological processing. To ensure CNS sections were matched between animals, anatomical landmarks were verified using a mouse brain atlas (Paxinos and Franklin, The mouse brain in stereotaxic coordinates: Second Edition, K.B.J., Academic Press, New York, 2001).
Histology and quantification of motor neurons: Spinal cord and brain sections from each animal were stained for Nissl body substance. At room temperature (RT), sections were rinsed in a graded ethanol series (95%:15 min; 70%:1 min; 50%:1 min) to rehydrate and remove lipids and fixation chemicals from the tissue. The tissue were then rinsed for 2 min in two exchanges of distilled water, stained with twice-filtered cresyl violet stain (1.25 g cresyl violet acetate, 0.75 mL glacial acetic acid to 250 mL distilled water), rinsed in distilled water (1 minute), and then dehydrated (50% ethanol: 1 minute; 1% glacial acetic acid-70% ethanol: 2 minutes; 95% ethanol: 2 minutes; 95% ethanol: 3 dips; 100% ethanol: 1 minute) and cleared in xylene. The slides were then cover-slipped in Entellen mountant (Merck, Darmstadt, Germany). The tissue mounted slides were selected with a randomized start and sampled starting from the lumbar 2 region to the 6th. […] The boundaries for the ventral horn was determined by the margins of the gray matter for the lateral, medial and ventral boundaries as well as with the aid of an artificial line drawn laterally through the central canal. Both the left and right ventral horns from 12 sections from each animal were counted. Alpha-motor neurons and γ-motor neurons with and without apoptotic structural changes were counted using strict morphological and size criteria. Non-apoptotic α-neurons were considered as the following: Large, multipolar cells with a round, pale nucleus; visible nucleolus; globular Nissl body staining of the cytoplasm; and a diameter of 30-45 μm. In doing so, astrocytes, oligodendrocytes and microglia were excluded from the “α-motor neuron” counts (Martin, L. J. (1999) J Neuropathol Exp Neurol. 58, 459-71; Sepkuty, J. P., et al. (2002) J Neurosci. 22, 6372-9; Tabata et al., 2008). […]

[2] = SG-fed vs control, Time-point 2 (52 wk)
[3] = SG-fed vs control, Time-point 1 (35 wk)
[4] = SG-group over time (35 to 52 wk)

CC[C@H](/C=C/[C@@H](C)[C@H]1CC[C@H]2[C@@H]3CC=C4C[C@@H](O[C@@H]5O[C@H](CO)[C@@H](O)[C@H](O)[C@H]5O)CC[C@]4(C)[C@H]3CC[C@]12C)C(C)C [SG, Stigmasterol β-D-Glucopyranoside]
Increase in the time between inversion of the apparatus and falling (male CD-1 mice; SG fed mice, control group showed an increase): did not | Wirehang (male CD-1 mice; [2]): Wirehang* (*p < 0.05) | Wirehang performance (male CD-1 mice; SG-fed vs control, prior to 35 weeks): decline in performance | Chromatolytic α-MN [1, 3]: Chromatolytic α-MN (ns) | Healthy α-MN per lumbar cord section [1, 3]: Healthy α-MN (ns) | Pyknotic α-MN [1, 3]: Pyknotic α-MN (ns) | Total γ-MN [1, 3]: Total γ-MN (ns) | Chromatolytic α-MN [1, 2]: Chromatolytic α-MN (ns) | Pyknotic α-MN [1, 2]: Pyknotic α-MN (ns) | Total γ-MN [1, 2]: Total γ-MN (ns) | Chromatolytic α-MN over time [1, 4]: (control group & SG-group independently over time) (ns) | Pyknotic α-MN over time [1, 4]: (control group and SG-group independently over time) (ns) | Total γ-MN over time [1, 4]: (control group and SG-group independently over time) (ns)

Source: patent US9573972B2, “Nurotoxic sterol glycosides” (priority 2008, dated 2017)
